Experimental data taken from US20120107916A1, “METHODS AND COMPOSITIONS FOR AFFECTING THE DIFFERENTIATION OF CLOSTRIDIA IN CULTURE” (priority 2009, published 2012).

Tests used:
[1] = system: C. beijerinckii NCIMB 8052; experiment: Final pH of cell-free culture supernatants of sequential batch cultures; type: cell-based, Clostridium beijerinckii
Method: (§1) Bacterial strains and media. Clostridium acetobutylicum ATCC 824 and C. beijerinckii NCIMB 8052 are available from several commercial microbial culture collections including the American Type Culture Collection (ATCC), Manassas, Va., USA. The strains were grown at 30° C. or 37° C. in YE broth, which contained, per liter: 5.0 g yeast extract, 2.5 g casamino acids, 1.0 g L-asparagine, 0.5 g cysteine.HCl, 56 mg K2HPO4, 56 mg KH2PO4, 82 mg anhydrous MgSO4, 8 mg FeSO4.H2O, 6 mg MnSO4.H2O and 10 g glucose. Alternatively, strains were grown in YEPG broth, which was identical to YE expect that K2HPO4 and KH2PO4 were increased to 145 mg/L each and glucose was increased to 60 g/L. The pH of the media was adjusted to 7.2 using 45% KOH prior to sterilization by autoclaving. Media were solidified by addition of 1.5% Bacteriological Agar, Actimedia Manufacturers, Inc., Lansing, Mich. All cultures were grown in anaerobic conditions using the AnaeroPack System, Mitsubishi Gas Chemical Co., Inc., Japan, and GasPak EZ Gas Generating Sachets, Becton, Dickinson and Co., Sparks, Md. Spore stocks were kept at room temperature on agar-solidified media and were activated by suspending spores in 0.5 mL to 1.0 mL of medium followed by heating for 10 min at 80° C. before inoculation into growth medium.
Growth and pH measurements. Growth of bacterial cultures was measured spectrophotometrically using optical density at 600 nm and pH of cell-free culture supernatants was measured using a hand-held Shindengen ISFET pH Meter KS501, Shendengen Electric Manufacturing Co., Ltd., Bannockburn, Ill.
Effect of peptide SEQ ID NO:145 addition on sequential batch cultures of C. beijerinckii NCIMB 8052 grown at 30° C. Spores of C. beijerinckii NCIMB 8052 were germinated and grown overnight at 30° C. under anaerobic conditions in YEPG medium. After about 24 h of growth, […] of the culture was transferred (transfer 1) to each of four flasks that contained 10 mL of YEPG and either had no treatment or were treated with peptide SEQ ID NO:145 (see Table 8) at 1 nM, 10 nM or 50 nM. Thereafter, 75 μL of each culture was transferred, at the same time, every 24-48 h to 10 mL of fresh YEPG that contained the same peptide treatment or no treatment. Each culture was stopped after 96 hours of incubation and optical density, pH and ceric ion reactive chemicals were measured. Sequential batch culturing was continued through 6 transfers at which point all cultures appeared to be growing to the same extent (Table 12 and FIG. 4).
Effect of peptide SEQ ID NO:145 addition on sequential batch cultures of C. beijerinckii NCIMB 8052 grown at 37° C. Spores of C. beijerinckii NCIMB 8052 were germinated and grown overnight at 37° C. under anaerobic conditions in YEPG medium that either contained 50 nM of peptide SEQ ID NO:145 or no added peptide. After about 24 h of growth, 10 μL of the untreated culture was transferred (transfer 1) to each of two flasks that contained 10 mL of YEPG with either no treatment or with 50 nM peptide SEQ ID NO:145. At the same time, 10 μL of the culture that was germinated in the presence of peptide SEQ ID NO:145 was also transferred to 10 mL of YEPG that contained 50 nM of peptide SEQ ID NO:145. Thereafter, 10 μL of each culture was transferred, at the same time, every 24-48 h to 10 mL of fresh YEPG that contained the same peptide treatment or no treatment. Each culture was stopped after 72 hours of incubation and optical density, pH and ceric ion reactive chemicals were measured. Addition of peptide SEQ ID NO:145 appeared to have no effect on endpoint measurements of the growth of C. beijerinckii NCIMB 8052 after germination or during sequential transfers of cultures at 37° C. (Table 18 and FIG. 10). All three cultures stopped growing at the second transfer.

[2] = system: C. beijerinckii NCIMB 8052; experiment: Ceric ion reactive compounds (total alcohols) in culture broths, colorimetric ceric ammonium nitrate assay; type: cell-based, Clostridium beijerinckii; settings: 50 nM peptide; for Optical density of ceric ion reactive compounds measured at 500 nm: transfer 3, 96 h, 30° C.
Method: as §1
Analysis of solvents. Total alcohols in cell-free culture supernatants were measured using a modification of a colorimetric method based on ceric ammonium nitrate (Reid and Truelove, 1952). […] The sample was mixed by inverting the cuvette six times then exactly two minutes later the optical density at 500 nm wavelength was measured. The concentration of total alcohols was determined by comparison with a standard curve prepared by using butanol diluted in distilled water.
Effect of peptide SEQ ID NO:145 addition on sequential batch cultures of C. beijerinckii NCIMB 8052 grown at 30° C. […] Each culture was stopped after 96 hours of incubation and optical density, pH and ceric ion reactive chemicals were measured. […]

Substance: IRLIT (Derived from Clostridium beijerinckii SEQ ID NO: 141) [Peptide SEQ ID NO:145, pentapeptide from C. beijerinckii NCIMB 8052 locus Cbei_1065; chemically synthesized putative autoinducing peptide]
- Final pH of culture broths ([1]; 1 nM peptide, transfer 1, 96 h, 30° C.): 5.3
- Final pH of culture broths ([1]; 1 nM peptide, transfer 2, 96 h, 30° C.): 5.3
- Final pH of culture broths ([1]; 1 nM peptide, transfer 3, 96 h, 30° C.): 5.1
- Final pH of culture broths ([1]; 1 nM peptide, transfer 4, 96 h, 30° C.): 5.3
- Final pH of culture broths ([1]; 1 nM peptide, transfer 5, 96 h, 30° C.): 5.3
- Final pH of culture broths ([1]; 1 nM peptide, transfer 6, 96 h, 30° C.): 5.3
- Final pH of culture broths ([1]; 10 nM peptide, transfer 1, 96 h, 30° C.): 5.3
- Final pH of culture broths ([1]; 10 nM peptide, transfer 2, 96 h, 30° C.): 5.3
- Final pH of culture broths ([1]; 10 nM peptide, transfer 3, 96 h, 30° C.): 5.0
- Final pH of culture broths ([1]; 10 nM peptide, transfer 4, 96 h, 30° C.): 5.3
- Final pH of culture broths ([1]; 10 nM peptide, transfer 5, 96 h, 30° C.): 5.4
- Final pH of culture broths ([1]; 10 nM peptide, transfer 6, 96 h, 30° C.): 5.3
- Final pH of culture broths ([1]; 50 nM peptide added after germination, transfer 1, 72 h, 37° C.): 4.1
- Final pH of culture broths ([1]; 50 nM peptide added after germination, transfer 2, 72 h, 37° C.): 6.5
- Effect on endpoint measurements of pH ([1]; 50 nM peptide, 37° C.): no apparent effect
- Final pH of culture broths ([1]; 50 nM peptide, transfer 1, 96 h, 30° C.): 5.4
- Final pH of culture broths ([1]; 50 nM peptide, transfer 2, 96 h, 30° C.): 5.3
- Final pH of culture broths ([1]; 50 nM peptide, transfer 3, 96 h, 30° C.): 5.2
- Final pH of culture broths ([1]; 50 nM peptide, transfer 4, 96 h, 30° C.): 5.3
- Final pH of culture broths ([1]; 50 nM peptide, transfer 5, 96 h, 30° C.): 5.3
- Final pH of culture broths ([1]; 50 nM peptide, transfer 6, 96 h, 30° C.): 5.3
- Final pH of culture broths ([1]; 50-50: germinated and transferred in 50 nM peptide, transfer 1, 72 h, 37° C.): 4.1
- Final pH of culture broths ([1]; 50-50: germinated and transferred in 50 nM peptide, transfer 2, 72 h, 37° C.): 6.6
- Final pH of culture broths ([1]; 50-50: spores germinated in 50 nM peptide, transfer 0 (germinated culture), 72 h, 37° C.): 4.1
- Effect on endpoint measurements of ceric ion reactive compounds ([2]; 37° C.): no apparent effect
- Optical density of ceric ion reactive compounds measured at 500 nm ([2]; listed as SEQ ID NO: 145): −0.002
- Optical density of ceric ion reactive compounds measured at 500 nm ([2]; listed as SEQ ID NO:145): no ceric ion reactive compounds
